≈ marks a conversion by molar mass, not a printed value. Where two headings read alike, the source gives them in different places.
Tests used:
Ent. gallinarum = test: MIC, broth microdilution method (NCCLS M7-A5); format: cell-based; details: 4174 Ent. gallinarum
Protocol: Antimicrobial activity of the antibiotic 107891 was determined by the broth microdilution method according to the National Committee for Clinical Laboratory Standards recommendations (NCCLS, document M7-A5).
The strains used were clinical isolates or strains from American Type Culture Collection (ATCC).
Antibiotic 107891 was dissolved in DMSO to obtain a 1000 μg/ml stock solution, and subsequently diluted in water to obtain working solution. The media used were cation-adjusted Mueller Hinton broth (CAMHB) for Staphylococci, M. catarrhalis, Enterococci and L. monocytogenes; Todd Hewitt broth (THB) for Streptococci; GC medium+1% Isovitalex+1% haemine for Neisseria spp.; Brain Hearth Infusion+1% C supplement for H. influenzae; Lactobacillus broth for Lactobacilli; Middlebrook 7H9 with Middlebrook OADC enrichment for M. smegmatis; RPMI 1640 Medium for C. albicans. Wilkins Chalgren broth+oxyrase (1:25 v/v) for Clostridia; Brucella broth containing cisteine (0.5 g/L) for Propionibacteria. Inocula for bacteria were 10^5 CFU/ml. C. albicans inoculum was 1×10^4 CFU/ml. All the tests were performed in presence of 0.02% of bovine serum albumin (BSA). […] After 18-24 hours visual readings were performed and MICs determined. […]
Table VIII reports the antimicrobial activities of the individual Factors A1 and A2 of antibiotic 107891. MICs were determined by microbroth dilution method as above described.

Propionibacterium acnes = details: 1016 Propionibacterium. acnes
Staph. epidermidis = test: MIC, broth microdilution method (NCCLS M7-A5); format: cell-based
Neisseria gonorrhaee = details: 997 Neisseria gonorrhaee
Strept. pneumoniae = test: MIC, broth microdilution method (NCCLS M7-A5); format: cell-based
Neisseria meningitidis = details: 1613 Neisseria meningitidis
[1] = 569 Enterococcus faecium cl. isol. Van A
[2] = 1400 Staphylococcus aureus cl. isol. Met r
[3] = 4341 Ent. faecalis VanB (first line, r17)
[4] = 4341 Ent. faecalis VanB (second line, r19)

With `C=C1NC(=O)C(Cc2c[nH]c3ccc(Cl)cc23)NC(=O)C(NC(=O)C(=CC)NC(=O)C(N)C(C)C)CSCC(C(=O)NC2C(=O)N3CCCC3C(=O)NCC(=O)NC(C(=O)NC(C(=O)NC3CSCC4NC(=O)C(CC(N)=O)NC(=O)C(CSCC5NC(=O)C(Cc6ccccc6)NC(=O)C(CS/C=C\NC5=O)NC4=O)NC(=O)CNC(=O)CNC(=O)CNC(=O)C4C(O)C(O)CN4C3=O)C(C)O)CSC2C)NC(=O)C(CC(C)C)NC1=O` (centres unmarked) [Factor A1] as the compound, how does the MIC (Ent. gallinarum) read?
The MIC was 1 µg/mL (≈ 0.445 µM).

What about the MIC (Propionibacterium acnes) of the same compound?
Its MIC is <0.03 µg/mL.

What about the MIC (Staph. epidermidis; 3894 Staph. epidermidis Met-R) of the same compound?
The MIC was “≦0.03 μg/ml”.

What about the MIC (Ent. faecium; 3 Ent. faecium Van A) of the same compound?
Its MIC is 0.5 µg/mL (≈ 0.222 µM).

And the MIC (Ent. faecium; 4 Ent. faecium Van A)?
The MIC was 1 µg/mL (≈ 0.445 µM).

And the MIC (Ent. faecium; [1])?
Its MIC is 1 µg/mL (≈ 0.445 µM).

What about the MIC (Ent. faecium; 4339 Ent. faecium VanD) of the same compound?
The MIC was 0.25 µg/mL (≈ 0.111 µM).

And the MIC (Ent. faecium; 6349 Ent. faecium Van A LNZ-R)?
Its MIC is 2 µg/mL (≈ 0.889 µM).

And the MIC (Ent. faecium; A8 Ent. faecium Van A)?
The MIC was 0.5 µg/mL (≈ 0.222 µM).

And the MIC (Ent. faecium; D561 Ent. faecium Van A)?
Its MIC is 2 µg/mL (≈ 0.889 µM).

What about the MIC (Staph. aureus; 819 Staph. aureus Met-S) of the same compound?
The MIC was “≦0.03 μg/ml”.

What about the MIC (Staph. aureus; [2]) of the same compound?
Its MIC is 0.13 µg/mL (≈ 0.0578 µM).

What about the MIC (Staph. aureus; 1524 Staph. aureus Met-R) of the same compound?
Its MIC is “≦0.03 μg/ml”.

And the MIC (Staph. aureus; 2235 Staph. aureus Met-R)?
Its MIC is 0.06 µg/mL (≈ 0.0267 µM).

And the MIC (Neisseria gonorrhaee)?
Its MIC is 0.5 µg/mL (≈ 0.222 µM).

And the MIC (Strept. pneumoniae; 3915 Strept. pneumoniae Pen-S)?
The MIC was “≦0.0015 μg/ml”.

And the MIC (Strept. pneumoniae; 3919 Strept. pneumoniae Pen-R)?
Its MIC is “≦0.0015 μg/ml”.

What about the MIC (Ent. faecalis) of the same compound?
The MIC was 1 µg/mL (≈ 0.445 µM).

And the MIC (Ent. faecalis; 4323 Ent. faecalis VanA)?
Its MIC is “≦0.03 μg/ml”.

And the MIC (Ent. faecalis; [3])?
The MIC was 0.5 µg/mL (≈ 0.222 µM).

And the MIC (Ent. faecalis; [4])?
Its MIC is 2 µg/mL (≈ 0.889 µM).

What about the MIC (Ent. faecalis; 4397 Ent. faecalis VanB) of the same compound?
The MIC was 1 µg/mL (≈ 0.445 µM).

And the MIC (Ent. faecalis; J1 Ent. faecalis VanA)?
Its MIC is 1 µg/mL (≈ 0.445 µM).

What about the MIC (Neisseria meningitidis) of the same compound?
The MIC was 0.25 µg/mL (≈ 0.111 µM).

Which results are given for `C=C1NC(=O)C(Cc2c[nH]c3ccc(Cl)cc23)NC(=O)C(NC(=O)C(=CC)NC(=O)C(N)C(C)C)CSCC(C(=O)NC2C(=O)N3CCCC3C(=O)NCC(=O)NC(C(=O)NC(C(=O)NC3CSCC4NC(=O)C(CC(N)=O)NC(=O)C(CSCC5NC(=O)C(Cc6ccccc6)NC(=O)C(CS/C=C\NC5=O)NC4=O)NC(=O)CNC(=O)CNC(=O)CNC(=O)C4CC(O)CN4C3=O)C(C)O)CSC2C)NC(=O)C(CC(C)C)NC1=O` (centres unmarked) [Factor A2]?
MIC (Ent. gallinarum): 1 µg/mL (≈ 0.448 µM); MIC (Propionibacterium acnes): 0.06 µg/mL (≈ 0.0269 µM); MIC (Staph. epidermidis; 3881 Staph. epidermidis Met-R): ≦0.03 μg/ml; MIC (Ent. faecium; 3 Ent. faecium Van A): 0.5 µg/mL (≈ 0.224 µM); MIC (Ent. faecium; 4 Ent. faecium Van A): 1 µg/mL (≈ 0.448 µM); MIC (Ent. faecium; 568 Enterococcus faecium cl. isol.): 2 µg/mL (≈ 0.896 µM); MIC (Ent. faecium; [1]): 2 µg/mL (≈ 0.896 µM); MIC (Ent. faecium; 4339 Ent. faecium VanD): 0.25 µg/mL (≈ 0.112 µM); MIC (Ent. faecium; 6349 Ent. faecium Van A LNZ-R): 2 µg/mL (≈ 0.896 µM); MIC (Ent. faecium; A8 Ent. faecium Van A): 0.5 µg/mL (≈ 0.224 µM); MIC (Ent. faecium; D561 Ent. faecium Van A): 2 µg/mL (≈ 0.896 µM); MIC (Staph. aureus; 819 Staph. aureus Met-S): ≦0.03 μg/ml; MIC (Staph. aureus; [2]): 0.13 µg/mL (≈ 0.0582 µM); MIC (Staph. aureus; 1524 Staph. aureus Met-R): ≦0.03 μg/ml; MIC (Staph. aureus; 2235 Staph. aureus Met-R): 0.06 µg/mL (≈ 0.0269 µM); MIC (Neisseria gonorrhaee): 0.25 µg/mL (≈ 0.112 µM); MIC (Strept. pneumoniae; 3915 Strept. pneumoniae Pen-S): ≦0.0015 μg/ml; MIC (Strept. pneumoniae; 3919 Strept. pneumoniae Pen-R): ≦0.0015 μg/ml; MIC (Ent. faecalis): 2 µg/mL (≈ 0.896 µM); MIC (Ent. faecalis; 4323 Ent. faecalis VanA): ≦0.03 μg/ml; MIC (Ent. faecalis; [3]): 0.5 µg/mL (≈ 0.224 µM); MIC (Ent. faecalis; [4]): 2 µg/mL (≈ 0.896 µM); MIC (Ent. faecalis; 4397 Ent. faecalis VanB): 1 µg/mL (≈ 0.448 µM); MIC (Ent. faecalis; J1 Ent. faecalis VanA): 1 µg/mL (≈ 0.448 µM); MIC (Neisseria meningitidis): 0.25 µg/mL (≈ 0.112 µM)

How did the MIC (Ent. faecalis) turn out when `C=C1NC(=O)[C@H](Cc2c[nH]c3ccc(Cl)cc23)NC(=O)[C@H](NC(=O)/C(=C/C)NC(=O)[C@@H](N)C(C)C)CSC[C@@H](C(=O)N[C@H]2C(=O)N3CCC[C@H]3C(=O)NCC(=O)N[C@H](C(=O)N[C@H](C(=O)N[C@@H]3CSC[C@@H]4NC(=O)[C@H](CC(N)=O)NC(=O)[C@@H](CSC[C@@H]5NC(=O)[C@H](Cc6ccccc6)NC(=O)[C@@H](CS/C=C\NC5=O)NC4=O)NC(=O)CNC(=O)CNC(=O)CNC(=O)[C@@H]4CCCN4C3=O)[C@@H](C)O)CS[C@H]2C)NC(=O)[C@H](CC(C)C)NC1=O` [MF-BA-1768α1, reference compound] was run?
The MIC was 4 µg/mL (≈ 1.8 µM).

— patent US7351687B2, “Antibiotic 107891, its factors A1 and A2, pharmaceutically acceptable salts and compositions, and use thereof” (priority 2003, dated 2008)
